Assay results as given in patent US12077503B2, “Substituted cyclic amides and their use as herbicides” (FMC CORPORATION, priority 2015, dated 2024).

How the values were obtained:
Assay type in all cases: in vivo
[1] = system: barnyardgrass (Echinochloa crus-galli); assay: Test C flooded paddy test; conditions: Flood; for Plant response rating (scale of 0 to 100), Barnyardgrass: 0 is no effect, 100 is complete control
Method in brief: (§1)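 Plants grown to the 2-leaf stage in pots flooded to 3 cm above soil; compounds applied directly into the paddy water, depth held throughout. After 13 to 15 d in greenhouse, injury visually rated against untreated controls on a 0–100 scale (0 no effect, 100 complete control).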

[2] = system: ducksalad (Heteranthera limosa); assay: Test C flooded paddy test; conditions: Flood; for Plant response rating (scale of 0 to 100), Ducksalad: 0 is no effect, 100 is complete control
Method in brief: as §1

rice (Oryza sativa) = assay: Test C flooded paddy test; conditions: Flood; for Plant response rating (scale of 0 to 100), Rice: 0 is no effect, 100 is complete control
Method in brief: as §1

[3] = system: sedge, umbrella (small-flower umbrella sedge, Cyperus difformis); assay: Test C flooded paddy test; conditions: Flood; for Plant response rating (scale of 0 to 100), Sedge, Umbrella: 0 is no effect, 100 is complete control
Method in brief: as §1

[4] = system: barley, spring (spring barley, Hordeum vulgare); assay: Test D preemergence; conditions: scale 0 to 100
Description: (§2) Seeds of plant species selected from bluegrass (annual bluegrass, Poa annua), blackgrass (Alopecurus myosuroides), canarygrass (littleseed canarygrass, Phalaris minor), chickweed (common chickweed, Stellaria media), Galium (catchweed bedstraw, Galium aparine), bromegrass, downy (downy bromegrass, Bromus tectorum), field poppy (Papaver rhoeas), field violet (Viola arvensis), foxtail, green (green foxtail, Setaria viridis), deadnettle (henbit deadnettle, Lamium amplexicaule), ryegrass, Italian (Italian ryegrass, Lolium multiflorum), Kochia (Kochia scoparia), lambsquarters (Chenopodium album), oilseed rape (Brassica napus), pigweed (Amaranthus retroflexus), chamomile (scentless chamomile, Matricaria inodora), Russian thistle (Salsola kali), speedwell (bird's-eye speedwell, Veronica persica), barley, spring (spring barley, Hordeum vulgare), wheat, spring (spring wheat, Triticum aestivum), buckwheat, wild (wild buckwheat, Polygonum convolvulus), mustard, wild (wild mustard, Sinapis arvensis), oat, wild (wild oat, Avena fatua), radish, wild (wild radish, Raphanus raphanistrum), windgrass (Apera spica-venti), barley, winter (winter barley Hordeum vulgare), and wheat, winter (winter wheat, Triticum aestivum) were planted into a silt loam soil and treated preemergence with test chemicals formulated in a non-phytotoxic solvent mixture which included a surfactant.
(§3) Treated plants and controls were maintained in a controlled growth environment approximately 21 d after which time all species were compared to controls and visually evaluated. Plant response ratings, summarized in Table D, are based on a scale of 0 to 100 where 0 is no effect and 100 is complete control. A dash (-) response means no test result.

[5] = system: barley, winter (winter barley Hordeum vulgare); assay: Test D preemergence; conditions: scale 0 to 100
Description: as §2, §3

[6] = system: blackgrass (Alopecurus myosuroides); assay: Test D preemergence; conditions: scale 0 to 100
Description: as §2, §3

[7] = system: bluegrass (annual bluegrass, Poa annua); assay: Test D preemergence; conditions: scale 0 to 100
Description: as §2, §3

[8] = system: bromegrass, downy (downy bromegrass, Bromus tectorum); assay: Test D preemergence; conditions: scale 0 to 100
Description: as §2, §3

[9] = system: canarygrass (littleseed canarygrass, Phalaris minor); assay: Test D preemergence; conditions: scale 0 to 100
Description: as §2, §3

[10] = system: chamomile (scentless chamomile, Matricaria inodora); assay: Test D preemergence; conditions: scale 0 to 100
Description: as §2, §3

[11] = system: deadnettle (henbit deadnettle, Lamium amplexicaule); assay: Test D preemergence; conditions: scale 0 to 100
Description: as §2, §3

[12] = system: field poppy (Papaver rhoeas); assay: Test D preemergence; conditions: scale 0 to 100
Description: as §2, §3

[13] = system: field violet (Viola arvensis); assay: Test D preemergence; conditions: scale 0 to 100
Description: as §2, §3

[14] = system: lambsquarters (Chenopodium album); assay: Test D preemergence; conditions: scale 0 to 100
Description: as §2, §3

[15] = system: oat, wild (wild oat, Avena fatua); assay: Test D preemergence; conditions: scale 0 to 100
Description: as §2, §3

[16] = system: oilseed rape (Brassica napus); assay: Test D preemergence; conditions: scale 0 to 100
Description: as §2, §3

[17] = system: wheat, spring (spring wheat, Triticum aestivum); assay: Test D preemergence; conditions: scale 0 to 100
Description: as §2, §3

[18] = system: windgrass (Apera spica-venti); assay: Test D preemergence; conditions: scale 0 to 100
Description: as §2, §3

[19] = 31 g ai/ha, scale 0 to 100 (0 no effect, 100 complete control), 13 to 15 d

O=C1NCC(c2cccc(OC(F)(F)C(F)F)c2)C1C(=O)Nc1ccccc1F (racemic) [Compound 695]
Plant response rating, Barnyardgrass [1, 19]: 20
Plant response rating (scale of 0 to 100), Barnyardgrass ([1]; 62 g ai/ha): 60
Plant response rating (scale of 0 to 100), Barnyardgrass ([1]; 125 g ai/ha): 65
Plant response rating (scale of 0 to 100), Barnyardgrass ([1]; 250 g ai/ha): 70
Plant response rating, Ducksalad [2, 19]: 30
Plant response rating (scale of 0 to 100), Ducksalad ([2]; 62 g ai/ha): 50
Plant response rating (scale of 0 to 100), Ducksalad ([2]; 125 g ai/ha): 80
Plant response rating (scale of 0 to 100), Ducksalad ([2]; 250 g ai/ha): 100
Plant response rating, Rice (rice (Oryza sativa); [19]): 0
Plant response rating (scale of 0 to 100), Rice (rice (Oryza sativa); 62 g ai/ha): 0
Plant response rating (scale of 0 to 100), Rice (rice (Oryza sativa); 125 g ai/ha): 15
Plant response rating (scale of 0 to 100), Rice (rice (Oryza sativa); 250 g ai/ha): 15
Plant response rating, Sedge, Umbrella [3, 19]: 0
Plant response rating (scale of 0 to 100), Sedge, Umbrella ([3]; 62 g ai/ha): 0
Plant response rating (scale of 0 to 100), Sedge, Umbrella ([3]; 125 g ai/ha): 0
Plant response rating (scale of 0 to 100), Sedge, Umbrella ([3]; 250 g ai/ha): 0

CN1CC(c2ccc(C(F)(F)F)cc2)C(C(=O)Nc2ccccc2S(C)(=O)=O)C1=O (stereo not drawn) [Compound 624]
Plant response rating: Barley, Spring ([4]; 31 g ai/ha): 0
Plant response rating: Barley, Spring ([4]; 62 g ai/ha): 0
Plant response rating: Barley, Spring ([4]; 125 g ai/ha): 5
Plant response rating: Barley, Spring ([4]; 250 g ai/ha): 40
Plant response rating: Barley, Winter ([5]; 31 g ai/ha): 0
Plant response rating: Barley, Winter ([5]; 62 g ai/ha): 0
Plant response rating: Barley, Winter ([5]; 125 g ai/ha): 0
Plant response rating: Barley, Winter ([5]; 250 g ai/ha): 40
Plant response rating: Blackgrass ([6]; 31 g ai/ha): 5
Plant response rating: Blackgrass ([6]; 62 g ai/ha): 5
Plant response rating: Blackgrass ([6]; 125 g ai/ha): 15
Plant response rating: Blackgrass ([6]; 250 g ai/ha): 85
Plant response rating: Bluegrass ([7]; 31 g ai/ha): 10
Plant response rating: Bluegrass ([7]; 62 g ai/ha): 25
Plant response rating: Bluegrass ([7]; 125 g ai/ha): 55
Plant response rating: Bluegrass ([7]; 250 g ai/ha): 65
Plant response rating: Bromegrass, Downy ([8]; 31 g ai/ha): 0
Plant response rating: Bromegrass, Downy ([8]; 62 g ai/ha): 10
Plant response rating: Bromegrass, Downy ([8]; 125 g ai/ha): 20
Plant response rating: Bromegrass, Downy ([8]; 250 g ai/ha): 20
Plant response rating: Canarygrass ([9]; 31 g ai/ha): 0
Plant response rating: Canarygrass ([9]; 62 g ai/ha): 15
Plant response rating: Canarygrass ([9]; 125 g ai/ha): 25
Plant response rating: Canarygrass ([9]; 250 g ai/ha): 45
Plant response rating: Chamomile ([10]; 31 g ai/ha): 0
Plant response rating: Chamomile ([10]; 62 g ai/ha): 95
Plant response rating: Chamomile ([10]; 125 g ai/ha): 90
Plant response rating: Chamomile ([10]; 250 g ai/ha): 100
Plant response rating: Deadnettle ([11]; 31 g ai/ha): 0
Plant response rating: Deadnettle ([11]; 62 g ai/ha): 0
Plant response rating: Deadnettle ([11]; 125 g ai/ha): 25
Plant response rating: Deadnettle ([11]; 250 g ai/ha): 70
Plant response rating: Field Poppy ([12]; 31 g ai/ha): 15
Plant response rating: Field Poppy ([12]; 62 g ai/ha): 25
Plant response rating: Field Poppy ([12]; 125 g ai/ha): 100
Plant response rating: Field Poppy ([12]; 250 g ai/ha): 100
Plant response rating: Field Violet ([13]; 31 g ai/ha): 10
Plant response rating: Field Violet ([13]; 62 g ai/ha): 10
Plant response rating: Field Violet ([13]; 125 g ai/ha): 10
Plant response rating: Field Violet ([13]; 250 g ai/ha): 10
Plant response rating: Lambsquarters ([14]; 31 g ai/ha): 0
Plant response rating: Lambsquarters ([14]; 62 g ai/ha): 70
Plant response rating: Lambsquarters ([14]; 125 g ai/ha): 35
Plant response rating: Lambsquarters ([14]; 250 g ai/ha): 60
Plant response rating: Oat, Wild ([15]; 31 g ai/ha): 0
Plant response rating: Oat, Wild ([15]; 62 g ai/ha): 5
Plant response rating: Oat, Wild ([15]; 125 g ai/ha): 15
Plant response rating: Oat, Wild ([15]; 250 g ai/ha): 35
Plant response rating: Oilseed Rape ([16]; 31 g ai/ha): 0
Plant response rating: Oilseed Rape ([16]; 62 g ai/ha): 25
Plant response rating: Oilseed Rape ([16]; 125 g ai/ha): 35
Plant response rating: Oilseed Rape ([16]; 250 g ai/ha): 65
Plant response rating: Wheat, Spring ([17]; 31 g ai/ha): 5
Plant response rating: Wheat, Spring ([17]; 62 g ai/ha): 10
Plant response rating: Wheat, Spring ([17]; 125 g ai/ha): 15
Plant response rating: Wheat, Spring ([17]; 250 g ai/ha): 40
Plant response rating: Windgrass ([18]; 31 g ai/ha): 15
Plant response rating: Windgrass ([18]; 62 g ai/ha): 25
Plant response rating: Windgrass ([18]; 125 g ai/ha): 85
Plant response rating: Windgrass ([18]; 250 g ai/ha): 95

CN1CC(c2cccc(OC(F)F)c2)C(C(=O)Nc2ccccc2F)C1=O (stereo not drawn) [Compound 618]
Plant response rating (scale of 0 to 100), Barnyardgrass ([1]; 31 g ai/ha): 35
Plant response rating (scale of 0 to 100), Barnyardgrass ([1]; 62 g ai/ha): 50
Plant response rating (scale of 0 to 100), Barnyardgrass ([1]; 125 g ai/ha): 75
Plant response rating (scale of 0 to 100), Barnyardgrass ([1]; 250 g ai/ha): 80
Plant response rating (scale of 0 to 100), Ducksalad ([2]; 31 g ai/ha): 60
Plant response rating (scale of 0 to 100), Ducksalad ([2]; 62 g ai/ha): 60
Plant response rating (scale of 0 to 100), Ducksalad ([2]; 125 g ai/ha): 95
Plant response rating (scale of 0 to 100), Ducksalad ([2]; 250 g ai/ha): 100
Plant response rating (scale of 0 to 100), Rice (rice (Oryza sativa); 31 g ai/ha): 0
Plant response rating (scale of 0 to 100), Rice (rice (Oryza sativa); 62 g ai/ha): 0
Plant response rating (scale of 0 to 100), Rice (rice (Oryza sativa); 125 g ai/ha): 15
Plant response rating (scale of 0 to 100), Rice (rice (Oryza sativa); 250 g ai/ha): 15
Plant response rating (scale of 0 to 100), Sedge, Umbrella ([3]; 31 g ai/ha): 0
Plant response rating (scale of 0 to 100), Sedge, Umbrella ([3]; 62 g ai/ha): 0
Plant response rating (scale of 0 to 100), Sedge, Umbrella ([3]; 125 g ai/ha): 0
Plant response rating (scale of 0 to 100), Sedge, Umbrella ([3]; 250 g ai/ha): 0

CN1CC(c2ccc(F)c(C(F)(F)F)c2)C(C(=O)Nc2cccc(F)c2F)C1=O (stereo not drawn) [Compound 613]
Plant response rating (scale of 0 to 100), Barnyardgrass ([1]; 31 g ai/ha): 0
Plant response rating (scale of 0 to 100), Barnyardgrass ([1]; 62 g ai/ha): 30
Plant response rating (scale of 0 to 100), Barnyardgrass ([1]; 125 g ai/ha): 50
Plant response rating (scale of 0 to 100), Barnyardgrass ([1]; 250 g ai/ha): 60
Plant response rating (scale of 0 to 100), Ducksalad ([2]; 31 g ai/ha): 0
Plant response rating (scale of 0 to 100), Ducksalad ([2]; 62 g ai/ha): 60
Plant response rating (scale of 0 to 100), Ducksalad ([2]; 125 g ai/ha): 75
Plant response rating (scale of 0 to 100), Ducksalad ([2]; 250 g ai/ha): 100
Plant response rating (scale of 0 to 100), Rice (rice (Oryza sativa); 31 g ai/ha): 0
Plant response rating (scale of 0 to 100), Rice (rice (Oryza sativa); 62 g ai/ha): 0
Plant response rating (scale of 0 to 100), Rice (rice (Oryza sativa); 125 g ai/ha): 10
Plant response rating (scale of 0 to 100), Rice (rice (Oryza sativa); 250 g ai/ha): 20
Plant response rating (scale of 0 to 100), Sedge, Umbrella ([3]; 31 g ai/ha): 0
Plant response rating (scale of 0 to 100), Sedge, Umbrella ([3]; 62 g ai/ha): 0
Plant response rating (scale of 0 to 100), Sedge, Umbrella ([3]; 125 g ai/ha): 0
Plant response rating (scale of 0 to 100), Sedge, Umbrella ([3]; 250 g ai/ha): 0
